Measurements published in patent publication US11178873B2, “Cyclic N-carboxamide compounds useful as herbicides” (FMC CORPORATION, priority 2015, dated 2021).

Assays:
Assay type in all cases: in vivo
[1] = tested on: barnyardgrass (Echinochloa crus-galli); experiment: Test A preemergence, barnyardgrass; details: 0 to 100 scale, 0 no effect, 100 complete control
Source text: (§1) Seeds of plant species selected from barnyardgrass (Echinochloa crus-galli), crabgrass, large (large crabgrass, Digitaria sanguinalis), kochia (Kochia scoparia), ragweed (common ragweed, Ambrosia elatior), morningglory (Ipomoea spp.), velvetleaf (Abutilon theophrasti), ryegrass, Italian (Italian ryegrass, Lolium multiflorum), foxtail, giant (giant foxtail, Setaria faberii), wheat (Triticum aestivum), corn (Zea mays), and pigweed (Amaranthus retroflexus), were planted into a blend of loam soil and sand and treated preemergence with a directed soil spray using test chemicals formulated in a non-phytotoxic solvent mixture which included a surfactant. At the same time, plants selected from these crop and weed species and also blackgrass (Alopecurus myosuroides), and galium (catchweed bedstraw, Galium aparine), were planted in pots containing the same blend of loam soil and sand and treated with postemergence applications of test chemicals formulated in the same manner. Plants ranged in height from 2 to 10 cm and were in the one- to two-leaf stage for the postemergence treatment. Treated plants and untreated controls were maintained in a greenhouse for approximately 10 d, after which time all treated plants were compared to untreated controls and visually evaluated for injury. Plant response ratings, summarized in Table A, are based on a 0 to 100 scale where 0 is no effect and 100 is complete control. A dash (-) response means no test result.

rice (Oryza sativa) = experiment: Test B flooded paddy test, rice; details: Flood, 1000 g ai/ha; scale 0 to 100 (0 no effect, 100 complete control); 13 to 15 d
Description: (§2) Plant species in the flooded paddy test selected from rice (Oryza sativa), sedge, umbrella (small-flower umbrella sedge, Cyperus difformis), ducksalad (Heteranthera limosa), and barnyardgrass (Echinochloa crus-galli) were grown to the 2-leaf stage for testing. At time of treatment, test pots were flooded to 3 cm above the soil surface, treated by application of test compounds directly to the paddy water, and then maintained at that water depth for the duration of the test. Treated plants and controls were maintained in a greenhouse for 13 to 15 d, after which time all species were compared to controls and visually evaluated. Plant response ratings, summarized in Table B, are based on a scale of 0 to 100 where 0 is no effect and 100 is complete control. A dash (-) response means no test result.

[2] = tested on: foxtail, giant (giant foxtail, Setaria faberii); experiment: Test A preemergence, foxtail, giant; details: 0 to 100 scale, 0 no effect, 100 complete control
Source text: as §1

[3] = tested on: ryegrass, Italian (Italian ryegrass, Lolium multiflorum); experiment: Test A preemergence, ryegrass, Italian; details: 0 to 100 scale, 0 no effect, 100 complete control
Source text: as §1

[4] = tested on: sedge, umbrella (small-flower umbrella sedge, Cyperus difformis); experiment: Test B flooded paddy test, sedge, umbrella; details: Flood, 1000 g ai/ha; scale 0 to 100 (0 no effect, 100 complete control); 13 to 15 d
Description: as §2

[5] = tested on: wheat (Triticum aestivum); experiment: Test A postemergence, wheat; details: 0 to 100 scale, 0 no effect, 100 complete control
Source text: as §1

[6] = tested on: ducksalad (Heteranthera limosa); experiment: Test B flooded paddy test, ducksalad; details: Flood, 1000 g ai/ha; scale 0 to 100 (0 no effect, 100 complete control); 13 to 15 d
Description: as §2

[7] = tested on: barnyardgrass (Echinochloa crus-galli); experiment: Test A postemergence, barnyardgrass; details: 0 to 100 scale, 0 no effect, 100 complete control
Source text: as §1

kochia (Kochia scoparia) [8] = experiment: Test A preemergence, kochia; details: 0 to 100 scale, 0 no effect, 100 complete control
Source text: as §1

kochia (Kochia scoparia) [9] = experiment: Test A postemergence, kochia; details: 0 to 100 scale, 0 no effect, 100 complete control
Source text: as §1

[10] = tested on: ryegrass, Italian (Italian ryegrass, Lolium multiflorum); experiment: Test A postemergence, ryegrass, Italian; details: 0 to 100 scale, 0 no effect, 100 complete control
Source text: as §1

[11] = tested on: pigweed (Amaranthus retroflexus); experiment: Test A preemergence, pigweed; details: 0 to 100 scale, 0 no effect, 100 complete control
Source text: as §1

[12] = tested on: barnyardgrass (Echinochloa crus-galli); experiment: Test B flooded paddy test, barnyardgrass; details: Flood, 1000 g ai/ha; scale 0 to 100 (0 no effect, 100 complete control); 13 to 15 d
Description: as §2

corn (Zea mays) = experiment: Test A postemergence, corn; details: 0 to 100 scale, 0 no effect, 100 complete control
Source text: as §1

[13] = tested on: pigweed (Amaranthus retroflexus); experiment: Test A postemergence, pigweed; details: 0 to 100 scale, 0 no effect, 100 complete control
Source text: as §1

[14] = tested on: ragweed (common ragweed, Ambrosia elatior); experiment: Test A postemergence, ragweed; details: 0 to 100 scale, 0 no effect, 100 complete control
Source text: as §1

[15] = tested on: foxtail, giant (giant foxtail, Setaria faberii); experiment: Test A postemergence, foxtail, giant; details: 0 to 100 scale, 0 no effect, 100 complete control
Source text: as §1

[16] = tested on: blackgrass (Alopecurus myosuroides); experiment: Test A postemergence, blackgrass; details: 0 to 100 scale, 0 no effect, 100 complete control
Source text: as §1

[17] = tested on: ragweed (common ragweed, Ambrosia elatior); experiment: Test A preemergence, ragweed; details: 0 to 100 scale, 0 no effect, 100 complete control
Source text: as §1

[18] = tested on: galium (catchweed bedstraw, Galium aparine); experiment: Test A postemergence, galium; details: 0 to 100 scale, 0 no effect, 100 complete control
Source text: as §1

## O=C1NCC(c2ccccc2)N1C(=O)Nc1ccccc1F (stereo not shown) [Compound 5]
[1]; 125 g ai/ha
  Plant response rating, Barnyardgrass: 0
[1]; 500 g ai/ha
  Plant response rating, Barnyardgrass: 0
Rice (Oryza sativa)
  Plant response rating, Rice: 0
[2]; 125 g ai/ha
  Plant response rating, Foxtail, Giant: 0
[2]; 500 g ai/ha
  Plant response rating, Foxtail, Giant: 0
[3]; 125 g ai/ha
  Plant response rating, Ryegrass, Italian: 0
[3]; 500 g ai/ha
  Plant response rating, Ryegrass, Italian: 0
[4]
  Plant response rating, Sedge, Umbrella: 0
[5]; 125 g ai/ha
  Plant response rating, Wheat: 0
[5]; 500 g ai/ha
  Plant response rating, Wheat: 0
[6]
  Plant response rating, Ducksalad: 90
[7]; 125 g ai/ha
  Plant response rating, Barnyardgrass: 0
[7]; 500 g ai/ha
  Plant response rating, Barnyardgrass: 0
Kochia (Kochia scoparia) [8]; 125 g ai/ha
  Plant response rating, Kochia: 0
Kochia (Kochia scoparia) [8]; 500 g ai/ha
  Plant response rating, Kochia: 0
Kochia (Kochia scoparia) [9]; 125 g ai/ha
  Plant response rating, Kochia: 0
Kochia (Kochia scoparia) [9]; 500 g ai/ha
  Plant response rating, Kochia: 0
[10]; 125 g ai/ha
  Plant response rating, Ryegrass, Italian: 0
[10]; 500 g ai/ha
  Plant response rating, Ryegrass, Italian: 0
[11]; 125 g ai/ha
  Plant response rating, Pigweed: 0
[11]; 500 g ai/ha
  Plant response rating, Pigweed: 0
[12]
  Plant response rating, Barnyardgrass: 0
Corn (Zea mays); 125 g ai/ha
  Plant response rating, Corn: 0
Corn (Zea mays); 500 g ai/ha
  Plant response rating, Corn: 0
[13]; 125 g ai/ha
  Plant response rating, Pigweed: 0
[13]; 500 g ai/ha
  Plant response rating, Pigweed: 0
[14]; 125 g ai/ha
  Plant response rating, Ragweed: 0
[14]; 500 g ai/ha
  Plant response rating, Ragweed: 0
[15]; 125 g ai/ha
  Plant response rating, Foxtail, Giant: 0
[15]; 500 g ai/ha
  Plant response rating, Foxtail, Giant: 0
[16]; 125 g ai/ha
  Plant response rating, Blackgrass: 0
[16]; 500 g ai/ha
  Plant response rating, Blackgrass: 0
[17]; 125 g ai/ha
  Plant response rating, Ragweed: 0
[17]; 500 g ai/ha
  Plant response rating, Ragweed: 0
[18]; 125 g ai/ha
  Plant response rating, Galium: 0
[18]; 500 g ai/ha
  Plant response rating, Galium: 0

## O=C1NCC(c2ccc(F)c(F)c2)N1C(=O)Nc1ccccc1 (stereo not shown) [Compound 7]
[1]; 125 g ai/ha
  Plant response rating, Barnyardgrass: 0
[1]; 500 g ai/ha
  Plant response rating, Barnyardgrass: 0
Rice (Oryza sativa)
  Plant response rating, Rice: 0
[2]; 125 g ai/ha
  Plant response rating, Foxtail, Giant: 0
[2]; 500 g ai/ha
  Plant response rating, Foxtail, Giant: 0
[3]; 125 g ai/ha
  Plant response rating, Ryegrass, Italian: 0
[3]; 500 g ai/ha
  Plant response rating, Ryegrass, Italian: 0
[4]
  Plant response rating, Sedge, Umbrella: 0
[5]; 125 g ai/ha
  Plant response rating, Wheat: 0
[5]; 500 g ai/ha
  Plant response rating, Wheat: 0
[6]
  Plant response rating, Ducksalad: 0
[7]; 125 g ai/ha
  Plant response rating, Barnyardgrass: 0
[7]; 500 g ai/ha
  Plant response rating, Barnyardgrass: 0
Kochia (Kochia scoparia) [8]; 125 g ai/ha
  Plant response rating, Kochia: 0
Kochia (Kochia scoparia) [8]; 500 g ai/ha
  Plant response rating, Kochia: 0
Kochia (Kochia scoparia) [9]; 125 g ai/ha
  Plant response rating, Kochia: 0
Kochia (Kochia scoparia) [9]; 500 g ai/ha
  Plant response rating, Kochia: 0
[10]; 125 g ai/ha
  Plant response rating, Ryegrass, Italian: 0
[10]; 500 g ai/ha
  Plant response rating, Ryegrass, Italian: 0
[11]; 125 g ai/ha
  Plant response rating, Pigweed: 0
[11]; 500 g ai/ha
  Plant response rating, Pigweed: 0
[12]
  Plant response rating, Barnyardgrass: 0
Corn (Zea mays); 125 g ai/ha
  Plant response rating, Corn: 0
Corn (Zea mays); 500 g ai/ha
  Plant response rating, Corn: 0
[13]; 125 g ai/ha
  Plant response rating, Pigweed: 0
[13]; 500 g ai/ha
  Plant response rating, Pigweed: 0
[14]; 125 g ai/ha
  Plant response rating, Ragweed: 0
[14]; 500 g ai/ha
  Plant response rating, Ragweed: 0
[15]; 125 g ai/ha
  Plant response rating, Foxtail, Giant: 0
[15]; 500 g ai/ha
  Plant response rating, Foxtail, Giant: 0
[16]; 125 g ai/ha
  Plant response rating, Blackgrass: 0
[16]; 500 g ai/ha
  Plant response rating, Blackgrass: 0
[17]; 125 g ai/ha
  Plant response rating, Ragweed: 0
[17]; 500 g ai/ha
  Plant response rating, Ragweed: 0
[18]; 125 g ai/ha
  Plant response rating, Galium: 0
[18]; 500 g ai/ha
  Plant response rating, Galium: 0

## CN1CC(c2ccc(C(F)(F)F)cc2)N(C(=O)Nc2cccc(F)c2F)C1=O (stereo not shown) [Compound 14]
[1]; 1000 g ai/ha
  Plant response rating, Barnyardgrass: 20
[2]; 1000 g ai/ha
  Plant response rating, Foxtail, Giant: 70
[3]; 1000 g ai/ha
  Plant response rating, Ryegrass, Italian: 0
[5]; 1000 g ai/ha
  Plant response rating, Wheat: 0
[7]; 1000 g ai/ha
  Plant response rating, Barnyardgrass: 0
Kochia (Kochia scoparia) [8]; 1000 g ai/ha
  Plant response rating, Kochia: 0
Kochia (Kochia scoparia) [9]; 1000 g ai/ha
  Plant response rating, Kochia: 0
[10]; 1000 g ai/ha
  Plant response rating, Ryegrass, Italian: 0
[11]; 1000 g ai/ha
  Plant response rating, Pigweed: 0
Corn (Zea mays); 1000 g ai/ha
  Plant response rating, Corn: 0
[13]; 1000 g ai/ha
  Plant response rating, Pigweed: 0
[14]; 1000 g ai/ha
  Plant response rating, Ragweed: 0
[15]; 1000 g ai/ha
  Plant response rating, Foxtail, Giant: 0
[16]; 1000 g ai/ha
  Plant response rating, Blackgrass: 0
[17]; 1000 g ai/ha
  Plant response rating, Ragweed: 0
[18]; 1000 g ai/ha
  Plant response rating, Galium: 0
